Data published in ChEMBL document CHEMBL1121842, “Preparation and antibacterial activity of delta 1-thienamycin” (1981).
The source made the active and inactive calls. The rule behind the calls is not given here.

Test system: Staphylococcus aureus
Test: Tested for antibacterial activity against Staphylococcus aureus by disc-diffusion antibacterial assay; Inactive
Assay type: functional, organism-based

**Q.** `C[C@@H](O)[C@H]1C(=O)N2[C@@H](C(=O)O)C(SCCN)=C[C@H]12` was tested. Which inhibition did it give?
**A.** The inhibition was “inactive”.
